Test results from patent US20140322434A1, “METHODS FOR PRODUCING ELECTROPHOTOGRAPHIC PHOTOSENSITIVE MEMBER AND ORGANIC DEVICE EACH HAVING CHARGE TRANSPORTING LAYER” (CANON KABUSHIKI KAISHA, priority 2011, published 2014).
Where two headings read alike, the source gives them in different places.

What was measured:
[1] = Solubility in water at 25° C. and 1 atm
Method: In the method for producing an electrophotographic photosensitive member of the present invention, the charge transporting substance and the binder resin are dissolved in the first liquid to prepare the first solution. […] Specific examples of the first liquid are shown in Table 1, but are not limited to the examples in Table 1.
Then, the second solution will be described.

[2] = Solubility of second liquid in the first liquid at 25° C. and 1 atm; settings: for solubility in first solution: liquids of Comparative Examples 5 to 11; for Solubility in first liquid: first liquid described in Table 1
[3] = liquids of Comparative Examples 5 to 11, 25° C. and 1 atm
[4] = second liquid, 25° C. and 1 atm

SMILES | Solubility in first liquid [2] | also measured
Clc1ccccc1Cl [First liquid example (3), o-Dichlorobenzene] |  | Solubility in water [1]: 0.0 mass %
Clc1ccccc1 [First liquid example (4), Chlorobenzene] |  | Solubility in water ([1]; first liquid, 25° C. and 1 atm): 0.1 mass %
Cc1ccccc1C [First liquid example (5), o-Xylene] |  | Solubility in water ([1]; first liquid, 25° C. and 1 atm): 0.0 mass %
CCc1ccccc1 [First liquid example (6), Ethylbenzene] |  | Solubility in water ([1]; first liquid, 25° C. and 1 atm): 0.0 mass %
CCOc1ccccc1 [First liquid example (7), Phenetole] |  | Solubility in water ([1]; first liquid, 25° C. and 1 atm): 0.1 mass %
OCCOCCOc1ccccc1 [Liquid (2), diethylene glycol monophenyl ether, reference compound] |  | Solubility in water [1, 3]: 3.4 mass %; solubility in first solution [2]: ≥ 5.0 mass %
CC(=O)OC(C)C [Liquid (4), isopropyl acetate, reference compound] |  | Solubility in water [1]: 2.9 mass %
CCCCOC(C)COC(C)COC(C)CO (stereo not drawn) [Liquid (5), tripropylene glycol n-butyl ether, reference compound] |  | Solubility in water [1, 3]: 2.9 mass %; solubility in first solution [2]: ≥ 5.0 mass %
CC(=O)OCCCCOC(C)=O [Liquid (6), 1,4-butanediol diacetate, reference compound] |  | Solubility in water [1, 3]: 4.2 mass %; solubility in first solution [2]: ≥ 5.0 mass %
COCOC [Second liquid example (2), dimethoxymethane] | 5.0 mass % or | Solubility in water [1, 4]: 32.3 mass %
C1CCOOC1 [Second liquid example (3), 1,2-dioxane] | 5.0 mass % or | 
C1COCOC1 [Second liquid example (4), 1,3-dioxane] | 5.0 mass % or | 
C1OCOCO1 [Second liquid example (6), 1,3,5-trioxane] | 5.0 mass % or | Solubility in water [1, 4]: 21.1 mass %
CCCC(C)=O [Second liquid example (8), 2-pentanone] | 5.0 mass % or | Solubility in water [1, 4]: 5.9 mass %
COCCOCCOC [Second liquid example (11), diethylene glycol dimethyl ether] | 5.0 mass % or | 
COCCOC [Second liquid example (12), ethylene glycol dimethyl ether] | 5.0 mass % or | 
CCCCOCC(C)O (stereo not drawn) [Second liquid example (13), propylene glycol n-butyl ether] | 5.0 mass % or | Solubility in water [1, 4]: 6.0 mass %

SMILES | Solubility in first liquid [2] | also measured
CCCOCC(C)O (stereo not drawn) [Second liquid example (14), propylene glycol monopropyl ether] | 5.0 mass % or | 
CCOCCOCCO [Second liquid example (16), diethylene glycol monoethyl ether] | 5.0 mass % or | 
CC(C)COCCO [Second liquid example (19), ethylene glycol monoisobutyl ether] | 5.0 mass % or | 
C=CCOCCO [Second liquid example (20), ethylene glycol monoallyl ether] | 5.0 mass % or | 
COCC(C)O (stereo not drawn) [Second liquid example (21), propylene glycol monomethyl ether] | 5.0 mass % or | 
COC(C)COC(C)CO (stereo not drawn) [Second liquid example (22), dipropylene glycol monomethyl ether] | 5.0 mass % or | 
COC(C)COC(C)COC(C)CO (stereo not drawn) [Second liquid example (23), tripropylene glycol monomethyl ether] | 5.0 mass % or | 
CCCCOCC(C)O (stereo not drawn) [Second liquid example (24), propylene glycol monobutyl ether] | 5.0 mass % or | Solubility in water [1, 4]: 6.4 mass %
COCC(C)OC(C)=O (stereo not drawn) [Second liquid example (25), propylene glycol monomethyl ether acetate] | 5.0 mass % or | Solubility in water [1, 4]: 20.5 mass %
CCOCCOCCOC [Second liquid example (26), diethylene glycol methyl ethyl ether] | 5.0 mass % or | 
CCOCCOCCOCC [Second liquid example (27), diethylene glycol diethyl ether] | 5.0 mass % or | 
COCC(C)OCC(C)OC (stereo not drawn) [Second liquid example (28), dipropylene glycol dimethyl ether] | 5.0 mass % or | 
CC(=O)OCC(C)OC(C)=O (stereo not drawn) [Second liquid example (29), propylene glycol diacetate] | 5.0 mass % or | 
CCOC(C)=O [Second liquid example (31), ethyl acetate] | 5.0 mass % or | 
COC(C)CCO (stereo not drawn) [Second liquid example (33), 3-methoxybutanol] | 5.0 mass % or | 
COC(C)CCOC(C)=O (stereo not drawn) [Second liquid example (34), 3-methoxybutyl acetate] | 5.0 mass % or | 
